The values below are quoted from earlier work in patent publication US20070197495A1, “ANTI-PARASITIC COMPOUNDS AND METHODS OF THEIR USE” (THE REGENTS OF THE UNIVERSITY OF CALIFORNIA, priority 2004, published 2007).

Data set [1] concerns T. cruzi. Conditions: cruzain inhibitor added to cultures of mammalian cells exposed to trypomastigotes or already infected with amastigotes.
Data set [2] has as its system T. cruzi. The conditions noted are these: mouse model study (Engel et al. 1998).

With “benzyloxy-carbonyl-L-phenylalanyl L-alanine fluoromethyl ketone [Z-Phe-Ala-FMK]”, in the data set on T. cruzi [1], the “replication and differentiation of the parasite” value was “blocks replication and differentiation of the parasite”.

`CN1CCN(C(=O)NC(Cc2ccccc2)C(=O)NC(C=CS(=O)(=O)c2ccccc2)CCc2ccccc2)CC1` (centres unmarked) [N-methyl piperazine-Phe-homoPhe-vinyl sulfone phenyl]: the “outcome of treatment of T. cruzi-infected mice” value with T. cruzi [2] was “cure”.
